According to ChEMBL document CHEMBL1125767, “New 5H-pyridazino[4,5-b]indole derivatives. Synthesis and studies as inhibitors of blood platelet aggregation and inotropics” (J Med Chem, 1991):
One block for each compound: values may come before it.

Experiments:
Homo sapiens [1] = organism: Homo sapiens; assay: Inhibition of collagen induced platelet aggregation in human platelet rich plasma at 7.5*10e-5 M; type: functional
[2] = target: PDE4 (Canis lupus familiaris); assay: Inhibition of canine heart phosphodiesterase 4
Homo sapiens [3] = organism: Homo sapiens; assay: Inhibition of adrenaline induced platelet aggregation in human platelet rich plasma at 7.5*10e-5 M; type: functional
Cavia porcellus [4] = organism: Cavia porcellus; assay: (§1) Inhibition of arachidonic acid induced platelet aggregation in guinea pig whole blood at 5*10e-4 M; type: functional
Homo sapiens [5] = organism: Homo sapiens; assay: Inhibition of arachidinoc acid induced platelet in human platelet rich plasma at 7.5*10e-5 M.; type: functional
Homo sapiens [6] = organism: Homo sapiens; assay: Inhibition of collagen induced platelet aggregation in human platelet rich plasma at 5*10e-5 M; type: functional
Homo sapiens [7] = organism: Homo sapiens; assay: Inhibition of ADP-induced platelet aggregation in human platelet rich plasma at 7.5*10e-5 M; type: functional
Cavia porcellus [8] = organism: Cavia porcellus; assay: Inhibition of ADP-induced platelet aggregation in guinea pig whole blood at 5*10e-5 M; type: functional
Cavia porcellus [9] = organism: Cavia porcellus; assay: (§2) Inhibition of ADP-induced platelet aggregation in guinea pig whole blood at 5*10e-4 M; type: functional
Cavia porcellus [10] = organism: Cavia porcellus; assay: Inhibition of arachidonic acid induced platelet aggregation in guinea pig whole blood at 10e-4 M; type: functional
Homo sapiens [11] = organism: Homo sapiens; assay: Inhibition of ADP-induced platelet aggregation in human platelet rich plasma at 5*10e-5 M; type: functional
[12] = In vitro inhibitory activity against prostaglandin E2 in platelet aggregation induced by arachidonic acid at 5*10e-4 M concentration.; type: functional
Homo sapiens [13] = organism: Homo sapiens; assay: Inhibition of arachidinoc acid induced platelet in human platelet rich plasma at 5*10e-5 M; type: functional
Homo sapiens [14] = organism: Homo sapiens; assay: Inhibition of adrenaline induced platelet aggregation in human platelet rich plasma at 5*10e-5 M; type: functional
Cavia porcellus [15] = organism: Cavia porcellus; assay: Inhibition of arachidonic acid induced platelet aggregation in guinea pig whole blood at 5*10e-5 M; type: functional
Cavia porcellus [16] = organism: Cavia porcellus; assay: Inhibition of ADP-induced platelet aggregation in guinea pig whole blood at 10e-4 M; type: functional
[17] = test system: PDE4 (Canis lupus familiaris); assay: Inhibition of canine heart Phosphodiesterase 4 at 100 uM
[18] = test system: PDE4 (Canis lupus familiaris); assay: Inhibition of canine heart Phosphodiesterase 4 at 50 uM
[19] = as §1; type: functional, Cavia porcellus
Homo sapiens [20] = organism: Homo sapiens; assay: Inhibition of arachidinoc acid induced platelet in human platelet rich plasma at 10e-5 M; type: functional
[21] = target: T1, Thromboxane-A synthase (Homo sapiens) (UniProt P24557); assay: In vitro inhibitory activity against prostaglandin E2 in platelet aggregation induced by arachidonic acid at 5*10e-3 M concentration; (Change from basal value); type: functional
T1 sequence (whole entry): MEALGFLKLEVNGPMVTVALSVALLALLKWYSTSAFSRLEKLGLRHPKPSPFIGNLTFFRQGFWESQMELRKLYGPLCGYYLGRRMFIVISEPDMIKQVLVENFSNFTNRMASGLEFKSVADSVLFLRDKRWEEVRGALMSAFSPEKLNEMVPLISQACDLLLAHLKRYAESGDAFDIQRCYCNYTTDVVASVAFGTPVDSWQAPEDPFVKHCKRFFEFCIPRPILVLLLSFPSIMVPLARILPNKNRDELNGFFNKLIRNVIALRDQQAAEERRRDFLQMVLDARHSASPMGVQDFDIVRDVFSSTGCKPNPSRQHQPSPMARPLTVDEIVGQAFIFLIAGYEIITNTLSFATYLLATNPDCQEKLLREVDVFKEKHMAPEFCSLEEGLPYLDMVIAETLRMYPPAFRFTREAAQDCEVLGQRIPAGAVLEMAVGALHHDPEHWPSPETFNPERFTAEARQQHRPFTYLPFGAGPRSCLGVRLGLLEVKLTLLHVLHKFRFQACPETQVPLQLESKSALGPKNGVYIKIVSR

Cavia porcellus [22] = organism: Cavia porcellus; assay: Inhibition of arachidonic acid induced platelet aggregation in guinea pig whole blood at 5*10e-3 M; type: functional
Cavia porcellus [23] = organism: Cavia porcellus; assay: Inhibition of ADP-induced platelet aggregation in guinea pig whole blood at 5*10e-3 M; type: functional
Homo sapiens [24] = organism: Homo sapiens; assay: Inhibition of ADP-induced platelet aggregation in human platelet rich plasma at 10e-5 M; type: functional
Homo sapiens [25] = organism: Homo sapiens; assay: Inhibition of adrenaline induced platelet aggregation in human platelet rich plasma at 10e-5 M; type: functional
Homo sapiens [26] = organism: Homo sapiens; assay: Inhibition of collagen induced platelet aggregation in human platelet rich plasma at 10e-5 M; type: functional
[27] = target: T1, Thromboxane-A synthase (Homo sapiens); assay: In vitro inhibitory activity against thromboxane B2 synthetase in platelet aggregation induced by arachidonic acid at 5*10e-3 M concentration; (Change from basal value); type: functional
[28] = as §2; type: functional, Cavia porcellus
Cavia porcellus [29] = organism: Cavia porcellus; assay: Inhibition of arachidonic acid induced platelet aggregation in guinea pig whole blood at 5*10e-4 M (not determined); type: functional
Homo sapiens [30] = organism: Homo sapiens; assay: Inhibition of arachidonic acid induced platelet aggregation in human platelet rich plasma at 5*10e-5 M; type: functional
Homo sapiens [31] = organism: Homo sapiens; assay: nhibition of ADP-induced platelet aggregation in human platelet rich plasma at 5*10e-5 M; type: functional
Cavia porcellus [32] = organism: Cavia porcellus; assay: Inhibition of arachidonic acid induced platelet aggregation in guinea pig whole blood at 10e-6 M; type: functional
[33] = In vitro inhibitory activity against prostaglandin E2 in platelet aggregation induced by arachidonic acid at 10e-4 M concentration.; type: functional
Cavia porcellus [34] = organism: Cavia porcellus; assay: Inhibition of arachidonic acid induced platelet aggregation in guinea pig whole blood at 5*10e-6 M; type: functional
Cavia porcellus [35] = organism: Cavia porcellus; assay: Inhibition of arachidonic acid induced platelet aggregation in guinea pig whole blood at 10e-5 M; type: functional
[36] = In vitro inhibitory activity against prostaglandin E2 in platelet aggregation induced by arachidonic acid at 5*10e-5 M concentration.; type: functional
Homo sapiens [37] = organism: Homo sapiens; assay: Inhibition of arachidonic acid induced platelet aggregation in human platelet rich plasma at 10e-5 M; type: functional
[38] = target: T1, Thromboxane-A synthase (Homo sapiens); assay: In vitro inhibitory activity against thromboxane B2 synthetase in platelet aggregation induced by arachidonic acid at 5*10e-4 M concentration; (Change from basal value); type: functional
[39] = target: T1, Thromboxane-A synthase (Homo sapiens); assay: In vitro inhibitory activity against thromboxane B2 synthetase in platelet aggregation induced by arachidonic acid at 10e-4 M concentration; (Change from basal value); type: functional
[40] = target: T1, Thromboxane-A synthase (Homo sapiens); assay: In vitro inhibitory activity against prostaglandin E2 in platelet aggregation induced by arachidonic acid at 10e-4 M concentration; (Change from basal value); type: functional
[41] = target: T1, Thromboxane-A synthase (Homo sapiens); assay: In vitro inhibitory activity against prostaglandin E2 in platelet aggregation induced by arachidonic acid at 5*10e-4 M concentration; (Change from basal value); type: functional

IC50 [2]: 348 µM
SMILES: Cc1cc(C)n(-c2[nH]nc(NN)c3c4ccccc4nc2-3)n1.Cl
Inhibition (Homo sapiens [1]): 78.4%
Inhibition (Homo sapiens [3]): 22%
Inhibition (Cavia porcellus [4]): 97%
Inhibition (Homo sapiens [5]): 6.5%
Inhibition (Homo sapiens [6]): 0%
Inhibition (Homo sapiens [7]): 23%
Inhibition (Cavia porcellus [8]): 0%
Inhibition (Cavia porcellus [9]): 90%
inhibition at 100 µM (Cavia porcellus [10]): 83%
Inhibition (Homo sapiens [11]): 22%
Inhibition [12]: 11.8%
Inhibition (Homo sapiens [13]): 4.8%
Inhibition (Homo sapiens [14]): 0%
Inhibition (Cavia porcellus [15]): 0%
inhibition at 100 µM (Cavia porcellus [16]): 23%

inhibition [17]: 29.5%
SMILES: Cc1cc(C)n(-c2n[nH]c(-n3nc(C)cc3C)c3c4ccccc4nc2-3)n1

SMILES: NNc1nncc2ccccc12 [HYDRALAZINE]
Inhibition (Cavia porcellus [4]): 20%
Inhibition (Cavia porcellus [9]): 0%

inhibition [17]: 55.9%
SMILES: NNC(=O)c1n[nH]c2c3nc4ccccc4c-3c(NN)nn12 [listing 1 of 3 here]

inhibition [18]: 11.9%
SMILES: COc1ccccc1N1CCN(c2[nH]nc(-n3nc(C)cc3C)c3nc4ccccc4c2-3)CC1

inhibition [18]: 2.52%
SMILES: Cc1cc(C)n(-c2[nH]nc(N3CCN(c4ccc(F)cc4)CC3)c3c4ccccc4nc2-3)n1

Prostaglandin E2 level [21]: -100%
Thromboxane B2 level [27]: -100%
SMILES: CC(=O)Oc1ccccc1C(=O)O [ASPIRIN]
Inhibition [19]: 100%
inhibition at 10 µM (Homo sapiens [20]): 90%
Inhibition (Cavia porcellus [22]): 30%
Inhibition (Cavia porcellus [23]): 15%
inhibition at 10 µM (Homo sapiens [24]): 20%
inhibition at 10 µM (Homo sapiens [25]): 38.3%
inhibition at 10 µM (Homo sapiens [26]): 52%
Inhibition [28]: 100%

SMILES: Cc1cc(C)n(-c2[nH]nc(NN)c3c4ccccc4nc2-3)n1 [listing 1 of 2 here]
Inhibition (Cavia porcellus [9]): 67.83%
Inhibition (Cavia porcellus [29]): 92.14%
Inhibition [12]: 96%

inhibition [17]: 4.8%
SMILES: COc1ccc(N2CCN(c3[nH]nc(-n4nc(C)cc4C)c4nc5ccccc5c3-4)CC2)cc1

IC50 [2]: 118 µM
inhibition [17]: 44.8%
SMILES: CNNc1[nH]nc(-n2nc(C)cc2C)c2nc3ccccc3c1-2
Inhibition (Homo sapiens [30]): 0%
Inhibition (Cavia porcellus [4]): 100%
Inhibition (Homo sapiens [6]): 0%
Inhibition (Cavia porcellus [9]): 33.8%
inhibition at 100 µM (Cavia porcellus [10]): 7.86%
Inhibition (Homo sapiens [31]): 0%
Inhibition [12]: -72.8%
Inhibition (Homo sapiens [14]): 0%
inhibition at 100 µM (Cavia porcellus [16]): 0%

inhibition [18]: 17.6%
SMILES: CCOc1ccccc1N1CCN(c2[nH]nc(-n3nc(C)cc3C)c3nc4ccccc4c2-3)CC1

inhibition [17]: 9.39%
SMILES: Cc1cc(C)n(-c2[nH]nc(NN)c3c4ccccc4nc2-3)n1 [listing 2 of 2 here]

SMILES: Nc1cc(-c2ccncc2)c[nH]c1=O [INAMRINONE]
Inhibition (Cavia porcellus [4]): 100%
Inhibition (Cavia porcellus [9]): 49%

inhibition [17]: 32.8%
SMILES: Cc1cc(C)n(-c2[nH]nc(N3CCCCC3)c3c4ccccc4nc2-3)n1
inhibition at 1 µM (Cavia porcellus [32]): 0%
inhibition at 100 µM [33]: -91%
Inhibition (Cavia porcellus [4]): 100%
Inhibition (Cavia porcellus [9]): 64.83%
inhibition at 10 µM (Homo sapiens [24]): 23.9%
Inhibition (Cavia porcellus [34]): 26.38%
inhibition at 10 µM (Homo sapiens [25]): 42.5%
inhibition at 100 µM (Cavia porcellus [10]): 99.4%
Inhibition [12]: -80.4%
inhibition at 10 µM (Homo sapiens [26]): 0%
Inhibition (Cavia porcellus [15]): 99.5%
inhibition at 10 µM (Cavia porcellus [35]): 67.5%
Inhibition [36]: -100%
inhibition at 10 µM (Homo sapiens [37]): 83.8%
inhibition at 100 µM (Cavia porcellus [16]): 0%

SMILES: NNC(=O)c1n[nH]c2c3nc4ccccc4c-3c(NN)nn12 [listing 2 of 3 here]
inhibition at 100 µM (Cavia porcellus [10]): 38.3%
inhibition at 100 µM (Cavia porcellus [16]): 8.25%

inhibition [17]: 37%
SMILES: CCOC(=O)c1n[nH]c2c3nc4ccccc4c-3c(Cl)nn12
Inhibition (Cavia porcellus [4]): 13.4%
Inhibition (Cavia porcellus [9]): 57.63%

IC50 [2]: 121 µM
SMILES: NNC(=O)c1n[nH]c2c3nc4ccccc4c-3c(NN)nn12 [listing 3 of 3 here]

inhibition [17]: 33.4%
SMILES: Cc1cc(C)n(-c2n[nH]c(N3CCN(C)CC3)c3c4ccccc4nc2-3)n1
Inhibition (Cavia porcellus [4]): 78.25%
Inhibition (Cavia porcellus [9]): 89.25%

inhibition [17]: 38%
SMILES: Cc1cc(C)n(-c2[nH]nc(N3CCOCC3)c3c4ccccc4nc2-3)n1
inhibition at 100 µM [33]: -80%
Inhibition (Cavia porcellus [4]): 100%
Inhibition (Cavia porcellus [9]): 47.83%
inhibition at 10 µM (Homo sapiens [24]): 24.8%
inhibition at 10 µM (Homo sapiens [25]): 0%
inhibition at 100 µM (Cavia porcellus [10]): 99.4%
Inhibition [12]: -78%
inhibition at 10 µM (Homo sapiens [26]): 36.6%
Inhibition (Cavia porcellus [15]): 59.83%
inhibition at 10 µM (Cavia porcellus [35]): 0%
inhibition at 10 µM (Homo sapiens [37]): 3.35%
inhibition at 100 µM (Cavia porcellus [16]): 0%

SMILES: Cc1cc(C)n(-c2[nH]nc(Cl)c3c4ccccc4nc2-3)n1
Inhibition (Cavia porcellus [4]): 46.17%
Inhibition (Cavia porcellus [9]): 31%

inhibition [17]: 7.52%
SMILES: COc1ccccc1N1CCN(c2n[nH]c(N3CCN(c4ccccc4OC)CC3)c3c4ccccc4nc2-3)CC1
Inhibition (Cavia porcellus [4]): 56.13%
Inhibition (Cavia porcellus [9]): 64%
inhibition at 100 µM (Cavia porcellus [10]): 26.6%
inhibition at 100 µM (Cavia porcellus [16]): 0%

Thromboxane B2 level [38]: -31%
Thromboxane B2 level [39]: -61%
Prostaglandin E2 level [40]: 518%
Prostaglandin E2 level [41]: 119%
SMILES: c1ccc2c(c1)[nH]c1c(-c3ncc[nH]3)nnc(-c3ncc[nH]3)c12
Inhibition (Cavia porcellus [4]): 98.88%
Inhibition (Cavia porcellus [9]): 24.25%
inhibition at 100 µM (Cavia porcellus [10]): 100%
inhibition at 100 µM (Cavia porcellus [16]): 23.2%
